Laboratory results as given in publication PMC5185470 (Bioorganic & medicinal chemistry letters, 2016).

Key:
[1] = molecular target: AChE (Homo sapiens, UniProt P22303); test: biochemical; format: biochemical; conditions: for increase of AChE inhibition relative to the unsubstituted nitropyridazine: vs JWS
[2] = molecular target: BuChE (Homo sapiens, UniProt P06276); test: biochemical
[3] = Chemical decomposition on storage; format: physicochemical; conditions: estimated, after 6 months; nitro replaced by hydroxyl
[4] = molecular target: T1, M2 receptor (Homo sapiens, UniProt P08172); conditions: read-out: M2 receptors IC50; previous studies; cited from earlier work
T1 sequence (P08172 1-466): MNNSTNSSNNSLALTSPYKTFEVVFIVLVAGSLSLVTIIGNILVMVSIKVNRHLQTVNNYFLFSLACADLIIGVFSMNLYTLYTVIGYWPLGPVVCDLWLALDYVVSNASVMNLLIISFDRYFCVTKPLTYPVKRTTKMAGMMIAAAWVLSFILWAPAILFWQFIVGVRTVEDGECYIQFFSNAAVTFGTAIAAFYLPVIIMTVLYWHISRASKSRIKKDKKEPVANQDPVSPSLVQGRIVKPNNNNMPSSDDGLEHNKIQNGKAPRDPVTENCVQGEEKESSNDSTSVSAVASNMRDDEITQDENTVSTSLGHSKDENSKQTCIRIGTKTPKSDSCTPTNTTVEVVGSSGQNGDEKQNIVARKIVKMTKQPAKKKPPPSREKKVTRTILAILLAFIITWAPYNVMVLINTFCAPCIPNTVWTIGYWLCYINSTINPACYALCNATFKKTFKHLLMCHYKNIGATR

Sequence of AChE (P22303 32-614): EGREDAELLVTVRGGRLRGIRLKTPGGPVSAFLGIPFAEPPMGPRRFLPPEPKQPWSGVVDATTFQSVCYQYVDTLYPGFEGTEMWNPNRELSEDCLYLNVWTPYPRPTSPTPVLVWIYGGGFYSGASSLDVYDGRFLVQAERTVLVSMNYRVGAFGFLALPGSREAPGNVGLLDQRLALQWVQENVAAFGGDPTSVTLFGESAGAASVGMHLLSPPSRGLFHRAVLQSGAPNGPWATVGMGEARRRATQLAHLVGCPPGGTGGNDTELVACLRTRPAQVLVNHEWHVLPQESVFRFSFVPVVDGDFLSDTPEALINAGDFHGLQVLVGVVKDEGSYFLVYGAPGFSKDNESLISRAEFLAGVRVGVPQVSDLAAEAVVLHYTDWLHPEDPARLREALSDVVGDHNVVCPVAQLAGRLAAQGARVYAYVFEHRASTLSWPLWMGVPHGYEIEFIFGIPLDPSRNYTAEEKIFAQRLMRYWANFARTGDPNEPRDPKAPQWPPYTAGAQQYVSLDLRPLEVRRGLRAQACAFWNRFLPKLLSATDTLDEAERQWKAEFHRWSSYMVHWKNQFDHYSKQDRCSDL
Sequence of BuChE (P06276 29-602): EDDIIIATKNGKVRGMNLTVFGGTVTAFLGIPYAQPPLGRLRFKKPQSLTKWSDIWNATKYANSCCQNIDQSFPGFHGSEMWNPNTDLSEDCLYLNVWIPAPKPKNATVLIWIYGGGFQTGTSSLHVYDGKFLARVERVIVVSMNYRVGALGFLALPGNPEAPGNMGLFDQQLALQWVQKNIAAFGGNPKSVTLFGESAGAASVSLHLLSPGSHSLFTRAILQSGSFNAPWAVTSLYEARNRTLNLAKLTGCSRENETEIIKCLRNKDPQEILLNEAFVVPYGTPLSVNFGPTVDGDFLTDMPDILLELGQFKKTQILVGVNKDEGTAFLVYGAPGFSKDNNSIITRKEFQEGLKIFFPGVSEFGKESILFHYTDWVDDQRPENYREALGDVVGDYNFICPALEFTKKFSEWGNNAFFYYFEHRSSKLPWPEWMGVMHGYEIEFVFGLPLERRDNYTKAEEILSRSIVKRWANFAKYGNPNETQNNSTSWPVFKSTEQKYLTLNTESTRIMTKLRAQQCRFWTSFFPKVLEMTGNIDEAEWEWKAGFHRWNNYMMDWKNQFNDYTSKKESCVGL

Compound | IC50 [2] [µM] | IC50 [1] [µM] | also measured
Cc1c(-c2ccccc2)nnc(NCCSCc2ccc(CN(C)C)o2)c1[N+](=O)[O-] [Compound 10] | – | – | increase of AChE inhibition relative to the unsubstituted nitropyridazine [1]: ~3 fold
CN(C)Cc1ccc(CSCCNc2nnc(-c3ccccc3)c(-c3ccccc3)c2[N+](=O)[O-])o1 [Compound 12] | – | – | increase of AChE inhibition relative to the unsubstituted nitropyridazine [1]: ~3 fold
CN(C)Cc1ccc(CSCCNc2ccc(Cl)nn2)o1 [Compound 16] | > 50 | – | –
CN(C)Cc1ccc(CSCCNc2nc(N)no2)o1 [Compound 17] | > 50 | > 50 | –
CN(C)Cc1ccc(CSCCNc2nc(N)n[nH]2)o1 [Compound 18] | > 50 | > 50 | –
CS/C(=N\S(=O)(=O)c1ccc(C)cc1)NCCSCc1ccc(CN(C)C)o1 [Compound 22] | > 50 | > 50 | –
Cc1ccc(S(=O)(=O)NCCSCc2ccc(CN(C)C)o2)cc1 [Compound 23] | – | > 50 | –
CN(C)Cc1ccc(CSCCNC(=O)c2ccccc2-c2ccccc2C(=O)O)o1 [Compound 24] | > 50 | > 50 | –
Cc1cccc(Nc2ccccc2C(=O)NCCSCc2ccc(CN(C)C)o2)c1C [Compound 25] | > 50 | > 50 | –
CN(C)Cc1ccc(CSCCN2C(=O)CCC2=O)o1 [Compound 27] | > 50 | – | –
CC1CC(=O)N(CCSCc2ccc(CN(C)C)o2)C1=O (centres unmarked) [Compound 28] | > 50 | – | –
CN(C)Cc1ccc(CSCCN2C(=O)c3ccc([N+](=O)[O-])cc3C2=O)o1 [Compound 31] | > 50 | – | –
CN(C)Cc1ccc(CSCCN2C(=O)c3cccc4cc([N+](=O)[O-])cc(c34)C2=O)o1 [Compound 33] | – | – | fold less active than donepezil (AChE) ([1]; vs donepezil IC50 = 0.050 µM): 3 fold
CN(C)Cc1ccc(CSCCNc2nnccc2[N+](=O)[O-])o1 [JWS, N-(2-(((5-((dimethylamino)methyl)furan-2-yl)methyl)thio)ethyl)-4-nitropyridazin-3-amine] | – | – | chemical decomposition [3]: about 10%; IC50 [4]: 0.06 µM
